Source: patent US5591828A, “Bispecific and oligospecific mono-and oligovalent receptors, the preparation and use thereof” (Behringwerke Aktiengesellschaft, priority 1989, dated 1997)
Blank lines part the entries; values can stand above or below the compound they belong to.

Tests used:
Test in all cases: Quantitative inhibition ELISA for MAbs by DTPA or EDTA complexes
Type in all cases: binding, mouse (Balb/c)
[1] = target: MAb 2050/534 (anti-DTPA/EDTA monoclonal antibody); conditions: solid phase Y-benzyl-DTPA-HSA, preincubation with competitor at RT for 30'
Protocol: (§1) Isothiocyanatobenzyl-DTPA (formula 2) was covalently coupled as hapten onto human serum albumin (HSA as carrier) with a degree of derivatization of 19 benzyl-DTPA molecules per HSA molecule by the method described in (N. W. Brechbiel et al., Inorganic Chemistry25, (1986) 2772-2781). 20 μg of this hapten-carrier complex, into which cold Y had been complexed, were injected s.c. on day 0 with Freund's adjuvant, on day 7 and 14 with incomplete Freund's adjuvant and on day 21 with PBS into Balb/c mice. On day 24, the spleens of the mice with the highest anti-DTPA antibody titers were fused with the SP2/0-Ag14 myeloma cell line (Shulman et al., Nature 276, (1978) 269). The resulting hybridomas were tested in a DTPA-specific ELISA for the production of high-affinity MAbs against DTPA and EDTA. The ELISA comprised a solid phase which was loaded with a solution containing HSA-benzyl-DTPA-Y. The supernatant containing the MAb to be tested was preincubated with free chelate or its metal ion complexes, and its binding to the specific solid phase was measured. An enzyme amplification system which is coupled to an anti-mouse immunoglobulin antibody was used for this purpose. The details of these methods are described in Annex 1a and 1b.
(§2) Quantitative inhibition ELISA for MAbs by DTPA or EDTA complexes
(§3) 1) 50 μl of Y-benzyl-DTPA-HSA 19 conjugate with a concentration of 1 μg of conjugate per ml of PBS, pH 7.2, are pipetted into each well and incubated at room temperature (RT) overnight.
(§4) 5) Preincubation of the diluted hybridoma supernatant with the competitor is carried out during the blocking (see Annex 1b).
(§5) 6) 50 μl of the appropriately prediluted and preincubated hybridoma supernatants to be tested are applied to each well and incubated at RT for 30 min.
(§6) 15) The extinctions are measured at 492 nm in a […]® […]. 50 μl of NADP with 50 μl of solution and 1200 μl of 0.1N H2 SO4 are employed as blank.
(§7) Preincubation of the hybridoma supernatant with the competitor
(§8) On the basis of the ELISA concentration determination, the hybridoma supernatants are diluted to 1.25 μg/ml in PBS without Ca^++ and Mg^++.
(§9) The hybridoma supernatant is incubated with 100,000-fold, 50,000-fold, 10,000-fold, 5,000-fold, 1,000-fold and 100-fold excess of competitor at RT for 30'. 50 μl of this are pipetted into the ELISA (see Annex 1a, no. 6).
(§10) The complexing constant of DTPA or EDTA to the metal ions depicted in Table I is extremely high so that complete saturation has to be expected on equimolar mixing of DTPA or EDTA with these metal ions. For this reason, the corresponding metal ions were incubated in a 3-fold molar excess with the DTPA or EDTA. As an example, 170 μl of a 10 mM cadmium sulfate solution in double-distilled water (see Annex 1d) were incubated with 30 μl of a 0.028 molar DTPA stock solution in double-distilled water at RT for 5'. Mixing 10 μl of this competitor solution with the hybridoma supernatant leads to a 100,000-fold excess of competitor over the MAb contained in the hybridoma supernatant. Lower competitor to MAb ratios were achieved by diluting the competitor solution in the particular salt ion solution appropriately for the desired molar excess (see Annex 1b).
(§11) Quantitative assay of inhibition of MAb by DTPA and EDTA
(§12) Molar excess of competitor which leads to 50% inhibition of the binding to the solid-phase antigen.

[2] = target: MAb 2050/531 (anti-DTPA/EDTA monoclonal antibody); conditions: solid phase Y-benzyl-DTPA-HSA, preincubation with competitor at RT for 30'
Protocol: as §1, §2, §3, §4, §5, §6, §7, §8, §9, §10, §11, §12

[3] = target: MAb BW 2050/174 (anti-DTPA/EDTA monoclonal antibody); conditions: MAb 2050/174; solid phase Y-benzyl-DTPA-HSA; preincubation with competitor at RT for 30'
Protocol: as §1, §2, §3, §4, §5, §6, §7, §8, §9, §10, §11, §12

[4] = target: MAb 2050/532 (anti-DTPA/EDTA monoclonal antibody); conditions: solid phase Y-benzyl-DTPA-HSA, preincubation with competitor at RT for 30'
Protocol: as §1, §2, §3, §4, §5, §6, §7, §8, §9, §10, §11, §12

[5] = target: MAb 2050/535 (anti-DTPA/EDTA monoclonal antibody); conditions: solid phase Y-benzyl-DTPA-HSA, preincubation with competitor at RT for 30'
Protocol: as §1, §2, §3, §4, §5, §6, §7, §8, §9, §10, §11, §12

Compound: NCCN [1,2-Diaminoethane, 1,2-diaminoethane]
Molar excess of competitor which leads to 50% inhibition of the binding to the solid-phase antigen [1]: > 10^5 molar excess
Molar excess of competitor which leads to 50% inhibition of the binding to the solid-phase antigen [2]: > 10^5 molar excess
Molar excess of competitor which leads to 50% inhibition of the binding to the solid-phase antigen [3]: > 10^5 molar excess
Molar excess of competitor which leads to 50% inhibition of the binding to the solid-phase antigen [4]: > 10^5 molar excess
Molar excess of competitor which leads to 50% inhibition of the binding to the solid-phase antigen [5]: > 10^5 molar excess

Compound: O=C([O-])CN(CCN(CCN(CC(=O)O)CC(=O)O)CC(=O)O)CC(=O)[O-].[Zn+2] [DTPA-Zn]
Molar excess of competitor which leads to 50% inhibition of the binding to the solid-phase antigen [1]: 5 × 10^3 molar excess
Molar excess of competitor which leads to 50% inhibition of the binding to the solid-phase antigen [2]: 5 × 10^3 molar excess
Molar excess of competitor which leads to 50% inhibition of the binding to the solid-phase antigen [3]: 5 × 10^3 molar excess
Molar excess of competitor which leads to 50% inhibition of the binding to the solid-phase antigen [4]: 5 × 10^3 molar excess
Molar excess of competitor which leads to 50% inhibition of the binding to the solid-phase antigen [5]: 10^3 molar excess

Compound: O=C(O)CN(CCN(CC(=O)O)CC(=O)O)CCN(CC(=O)O)CC(=O)O [DTPA, diethylenetriaminepentaacetate]
Molar excess of competitor which leads to 50% inhibition of the binding to the solid-phase antigen [1]: 10^3 molar excess
Molar excess of competitor which leads to 50% inhibition of the binding to the solid-phase antigen [2]: 10^3 molar excess
Molar excess of competitor which leads to 50% inhibition of the binding to the solid-phase antigen [3]: 10^3 molar excess
Molar excess of competitor which leads to 50% inhibition of the binding to the solid-phase antigen [4]: 10^3 molar excess
Molar excess of competitor which leads to 50% inhibition of the binding to the solid-phase antigen [5]: 10^3 molar excess

Compound: O=C(O)/C=C(\CC(=O)O)C(=O)O [Trans-aconitic acid, transaconitic acid]
Molar excess of competitor which leads to 50% inhibition of the binding to the solid-phase antigen [1]: > 10^5 molar excess
Molar excess of competitor which leads to 50% inhibition of the binding to the solid-phase antigen [2]: > 10^5 molar excess
Molar excess of competitor which leads to 50% inhibition of the binding to the solid-phase antigen [3]: > 10^5 molar excess
Molar excess of competitor which leads to 50% inhibition of the binding to the solid-phase antigen [4]: > 10^5 molar excess
Molar excess of competitor which leads to 50% inhibition of the binding to the solid-phase antigen [5]: > 10^5 molar excess

Results, then the compound that gave them:

Molar excess of competitor which leads to 50% inhibition of the binding to the solid-phase antigen [1]: 5 × 10^4 molar excess
Molar excess of competitor which leads to 50% inhibition of the binding to the solid-phase antigen [2]: 5 × 10^4 molar excess
Molar excess of competitor which leads to 50% inhibition of the binding to the solid-phase antigen [3]: 10^4 molar excess
Molar excess of competitor which leads to 50% inhibition of the binding to the solid-phase antigen [4]: 5 × 10^4 molar excess
Molar excess of competitor which leads to 50% inhibition of the binding to the solid-phase antigen [5]: 10^4 molar excess
Compound: O=C([O-])CN(CCN(CC(=O)[O-])CC(=O)[O-])CCN(CC(=O)[O-])CC(=O)[O-].[Y+3] [DTPA-Y]

Molar excess of competitor which leads to 50% inhibition of the binding to the solid-phase antigen [1]: 10^3 molar excess
Molar excess of competitor which leads to 50% inhibition of the binding to the solid-phase antigen [2]: 10^2 molar excess
Molar excess of competitor which leads to 50% inhibition of the binding to the solid-phase antigen [3]: 10^3 molar excess
Molar excess of competitor which leads to 50% inhibition of the binding to the solid-phase antigen [4]: 5 × 10^3 molar excess
Molar excess of competitor which leads to 50% inhibition of the binding to the solid-phase antigen [5]: 10^2 molar excess
Compound: O=C([O-])CN(CCN(CC(=O)[O-])CC(=O)[O-])CC(=O)[O-].[Cu+2] [EDTA-Cu]

Molar excess of competitor which leads to 50% inhibition of the binding to the solid-phase antigen [1]: 10^3 molar excess
Molar excess of competitor which leads to 50% inhibition of the binding to the solid-phase antigen [2]: 10^3 molar excess
Molar excess of competitor which leads to 50% inhibition of the binding to the solid-phase antigen [3]: 10^3 molar excess
Molar excess of competitor which leads to 50% inhibition of the binding to the solid-phase antigen [4]: 10^3 molar excess
Molar excess of competitor which leads to 50% inhibition of the binding to the solid-phase antigen [5]: 10^2 molar excess
Compound: O=C([O-])CN(CCN(CC(=O)O)CC(=O)O)CC(=O)[O-].[Zn+2] [EDTA-Zn]
